Results as given in patent US6461644B1, “Anesthetizing plastics, drug delivery plastics, and related medical products, systems and methods” (priority 1996, dated 2002).

Experiments:
skin = assay: Demonstrations of anesthetizing plastic, tapes and adhesive films on skin; type: in vivo, human; conditions: employed instead of lidocaine
Excerpt: […]. For instance, lidocaine added to polyvinyl chloride is all that is needed to create a soft, stretchy, elastic vinyl milled film or sheet. Like the common vinyl plasticizer di-isooctyl phthalate, lidocaine base slowly migrates to the surface of the formed object, to serve as a sustained source of anesthetic to tissue contacted by the device. The rate of drug delivery is governed by the selected concentration of the drug, the selected plastic resin and the acceptance rate of the part of the body with which the anesthetizing plastic is in contact. […]. A piece of such milled vinyl anesthetic material has remained taped to skin for 10 days without any diminution of anesthetizing effect or apparent loss of plasticization.
. […]. However, when this adhesive-topical anesthetic mixture is applied to polyethylene film as a carrier and is pressed with a warm hand to human skin, sufficient tackiness is observed that the film clings to the applied areas effectively, but can be readily removed. The tacky product is suitably dispensed with the tacky layer protected by contact with silicone coated release paper.
With such devices, in 1-3 hours topical anesthesia of the skin is established, which will last for 2-3 days if the film patch is left in place. Washing the skin e.g. with lauramide surfactant prior to applying the film decreases the onset time for skin anesthesia. […]

[1] = Protocol: In one case, in the course of manufacture, propafenone is dissolved in orally administratable solid granules such as coarse or fine powder of non-biodegradable thermoplastic resin. […] In another embodiment, the resin is formed on or as an implant to release the drug directly to heart tissue or the blood stream, or as a transdermal patch or as a drug-applying ear or nose plug.

| SMILES | duration of anesthesia following removal compared with lidocaine (skin) | amount held by PVC ([1]; PVC) | amount in solution in PVC that can be employed ([1]; PVC) [% by weight] | amount held by CPE ([1]; chlorinated polyethylene, by milling) | amount held by EP ([1]; ethylene propylene, by milling) |
| --- | --- | --- | --- | --- | --- |
| CCCCOc1cc(C(=O)NCCN(CC)CC)c2ccccc2n1 [dibucaine] | substantially longer | – | – | – | – |
| CCN(CC)CC(=O)Nc1c(C)cccc1C [lidocaine base] | – | about 50% | ≥ 50 | about 25% | about 25% |
| CCCCNc1ccc(C(=O)OCCN(C)C)cc1 [tetracaine] | substantially longer | – | – | – | – |
